Results taken from patent publication US10681909B2, “Herbicidal triazoles” (FMC Corporation, priority 2014, dated 2020).

Assays:
soybean = assay: Test C preemergence; format: in vivo, Glycine max; conditions: for Soybean plant response rating (0 to 100): Preemergence, visual rating after 13 to 15 d
Excerpt: (§1) Seeds of plant species selected from blackgrass (Alopecurus myosuroides), ryegrass, Italian (Italian ryegrass, Lolium multiflorum), wheat (winter wheat, Triticum aestivum), galium (catchweed bedstraw, Galium aparine), corn (Zea mays), crabgrass, large (large crabgrass, Digitaria sanguinalis), foxtail, giant, (giant foxtail, Setaria faberii), johnsongrass (Sorghum halepense), lambsquarters (Chenopodium album), morningglory (Ipomoea coccinea), nutsedge, yellow (yellow nutsedge, Cyperus esculentus), pigweed (Amaranthus retroflexus), ragweed (common ragweed, Ambrosia elatior), soybean (Glycine max), barnyardgrass (Echinochloa crus-galli), oilseed rape (Brassica napus), waterhemp (common waterhemp, Amaranthus rudis), and velvetleaf (Abutilon theophrasti) were planted into a blend of loam soil and sand and treated preemergence with test chemicals formulated in a non-phytotoxic solvent mixture which included a surfactant. At the same time, plants selected from these crop and weed species and also chickweed (common chickweed, Stellaria media), oat, wild (wild oat, Avena fatua), and kochia (Kochia scoparia), were planted in pots containing Sunshine Redi-Earth® planting medium comprising spaghnum peat moss, vermiculite, starter nutrients and dolomitic limestone and treated with postemergence applications of test chemicals formulated in the same manner. Plants ranged in height from 2 to 18 cm (1- to 4-leaf stage) for postemergence treatments. […] A dash (-) response means no test result.

blackgrass [1] = assay: Test C preemergence; format: in vivo, Alopecurus myosuroides; conditions: for Plant response rating (scale of 0 to 100 where 0 is no effect and 100 is complete control): Blackgrass, preemergence; for Blackgrass plant response rating (0 to 100): Preemergence, visual rating after 13 to 15 d
Excerpt: as §1

velvetleaf = assay: Test C preemergence; format: in vivo, Abutilon theophrasti; conditions: for Velvetleaf plant response rating (0 to 100): Preemergence, visual rating after 13 to 15 d
Excerpt: as §1

morningglory [2] = assay: Test A preemergence; format: in vivo, Ipomoea spp.; conditions: Ipomoea, pre-emergence, 240 h, 0 to 100 scale (0 no effect, 100 complete control), read-out: Plant response rating, Morningglory
In short: (§2)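 Loam/sand soil mix; compound in non-phytotoxic solvent + surfactant. Pre: directed soil spray right after planting seed. Post: potted plants 2–10 cm, 1–2 leaf stage, sprayed with same formulation.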

kochia = assay: Test D preemergence; format: in vivo, Kochia scoparia; conditions: scale 0 to 100
Excerpt: (§3) Seeds of plant species selected from bluegrass (annual bluegrass, Poa annua), blackgrass (Alopecurus myosuroides), canarygrass (Phalaris minor), chickweed (common chickweed, Stellaria media), galium (catchweed bedstraw, Galium aparine), bromegrass, down (downy bromegrass, Bromus tectorum), Russian thistle (Salsola kali), field poppy (Papaver rhoeas), field violet (Viola arvensis), foxtail, green (green foxtail, Setaria viridis), deadnettle (henbit deadnettle, Lamium amplexicaule), ryegrass, Ital. (Italian ryegrass, Lolium multiflorum), kochia (Kochia scoparia), lambsquarters (Chenopodium album), oilseed rape (Brassica napus), pigweed (Amaranthus retroflexus), chamomile (scentless chamomile, Matricaria inodora), speedwell (bird's-eye speedwell, Veronica persica), barley, spring (spring barley, Hordeum vulgare), wheat, spring (spring wheat, Triticum aestivum), buckwheat, wild (wild buckwheat, Polygonum convolvulus), wild mustard (Sinapis arvensis), oat, wild (wild oat, Avena fatua), radish, wild (wild radish, Raphanus raphanistrum), […]), barley, winter (winter barley, Hordeum vulgare), and wheat, winter (winter wheat, Triticum aestivum) were planted into a silt loam soil and treated preemergence with test chemicals formulated in a non-phytotoxic solvent mixture which included a surfactant. At the same time, these species were planted in pots containing Sunshine Redi-Earth® planting medium comprising spaghnum peat moss, vermiculite, starter nutrients and dolomitic limestone and treated with postemergence applications of the test chemicals formulated in the same manner. Plants ranged in height from 2 to 18 cm (1- to 4-leaf stage). Treated plants and controls were maintained in a controlled growth environment for 14 to 21 d after which time all species were compared to controls and visually evaluated. […] A dash (-) response means no test result.

canarygrass = assay: Test D preemergence; format: in vivo, Phalaris minor; conditions: scale 0 to 100
Excerpt: as §3

morningglory [3] = assay: Test A postemergence; format: in vivo, Ipomoea spp.; conditions: Ipomoea, post-emergence, 240 h, 0 to 100 scale (0 no effect, 100 complete control), approx. 10 d, read-out: Plant response rating, Morningglory
In short: as §2

blackgrass [4] = assay: Test D postemergence; format: in vivo, Alopecurus myosuroides; conditions: scale 0 to 100
Excerpt: as §3

crabgrass, large = assay: Test C preemergence; format: in vivo, Digitaria sanguinalis; conditions: for Plant response rating (scale of 0 to 100 where 0 is no effect and 100 is complete control): Crabgrass, Large, preemergence; for Crabgrass, Large plant response rating (0 to 100): Preemergence, visual rating after 13 to 15 d
Excerpt: as §1

blackgrass [5] = assay: Test D preemergence; format: in vivo, Alopecurus myosuroides; conditions: scale 0 to 100
Excerpt: as §3

corn = assay: Test C preemergence; format: in vivo, Zea mays; conditions: for Plant response rating (scale of 0 to 100 where 0 is no effect and 100 is complete control): Corn, preemergence; for Corn plant response rating (0 to 100): Preemergence, visual rating after 13 to 15 d
Excerpt: as §1

## CCOc1nc(-c2ccc(F)cc2)nn1Cc1ccnc(C(F)(F)F)c1 [Compound 8, 4-[[5-ethoxy-3-(4-fluorophenyl)-1H-1,2,4-triazol-1-yl]methyl]-2-(trifluoromethyl)pyridine]
soybean; 31 g ai/ha
  Soybean plant response rating (0 to 100): 15
soybean; 62 g ai/ha
  Soybean plant response rating (0 to 100): 35
soybean; Soybean, preemergence, 250 g ai/ha
  Plant response rating (scale of 0 to 100 where 0 is no effect and 100 is complete control): 75
Blackgrass [1]; 125 g ai/ha
  Plant response rating (scale of 0 to 100 where 0 is no effect and 100 is complete control): 90
Blackgrass [1]; 250 g ai/ha
  Plant response rating (scale of 0 to 100 where 0 is no effect and 100 is complete control): 90
Blackgrass [1]; 31 g ai/ha
  Blackgrass plant response rating (0 to 100): 90
Blackgrass [1]; 62 g ai/ha
  Blackgrass plant response rating (0 to 100): 90
velvetleaf; 31 g ai/ha
  Velvetleaf plant response rating (0 to 100): 70
velvetleaf; 62 g ai/ha
  Velvetleaf plant response rating (0 to 100): 85
velvetleaf; Velvetleaf, preemergence, 250 g ai/ha
  Plant response rating (scale of 0 to 100 where 0 is no effect and 100 is complete control): 100
Morningglory [2]; 125 g ai/ha
  pest or weed control at 125 g/ha: 100%
Morningglory [2]; 500 g ai/ha, approx. 10 d
  pest or weed control at 500 g/ha: 100%
kochia; 62 g ai/ha
  Plant response rating: Kochia: 100
kochia; 125 g ai/ha
  Plant response rating: Kochia: 100
kochia; 250 g ai/ha
  Plant response rating: Kochia: 100
canarygrass; 31 g ai/ha
  Plant response rating: Canarygrass: 50
canarygrass; 62 g ai/ha
  Plant response rating: Canarygrass: 100
canarygrass; 125 g ai/ha
  Plant response rating: Canarygrass: 100
canarygrass; 250 g ai/ha
  Plant response rating: Canarygrass: 100
Morningglory [3]; 125 g ai/ha
  pest or weed control at 125 g/ha: 90%
Morningglory [3]; 500 g ai/ha
  pest or weed control at 500 g/ha: 100%
Blackgrass [4]; 31 g ai/ha
  Plant response rating: Blackgrass: 50
Blackgrass [4]; 62 g ai/ha
  Plant response rating: Blackgrass: 50
Blackgrass [4]; 125 g ai/ha
  Plant response rating: Blackgrass: 75
Blackgrass [4]; 250 g ai/ha
  Plant response rating: Blackgrass: 70
crabgrass, large; 125 g ai/ha
  Plant response rating (scale of 0 to 100 where 0 is no effect and 100 is complete control): 100
crabgrass, large; 250 g ai/ha
  Plant response rating (scale of 0 to 100 where 0 is no effect and 100 is complete control): 100
crabgrass, large; 31 g ai/ha
  Crabgrass, Large plant response rating (0 to 100): 100
crabgrass, large; 62 g ai/ha
  Crabgrass, Large plant response rating (0 to 100): 100
Blackgrass [5]; 31 g ai/ha
  Plant response rating: Blackgrass: 65
Blackgrass [5]; 62 g ai/ha
  Plant response rating: Blackgrass: 70
Blackgrass [5]; 125 g ai/ha
  Plant response rating: Blackgrass: 100
Blackgrass [5]; 250 g ai/ha
  Plant response rating: Blackgrass: 100
corn; 125 g ai/ha
  Plant response rating (scale of 0 to 100 where 0 is no effect and 100 is complete control): 65
corn; 250 g ai/ha
  Plant response rating (scale of 0 to 100 where 0 is no effect and 100 is complete control): 65
corn; 31 g ai/ha
  Corn plant response rating (0 to 100): 35
corn; 62 g ai/ha
  Corn plant response rating (0 to 100): 55
